Like-named read-outs stand apart in the source and are kept apart here.
What was measured:
[1] = molecular target: T1, PAF Binding, dog platelets (Canis lupus familiaris, UniProt A0A8I3NSH0); assay: PAF Binding Assay (inhibition of 3H-PAF binding to washed dog platelets)
T1 construct: Washed platelets were prepared by resuspending the platelet pellet once with PBS containing 1 mM EDTA; from tissue; host or cells: washed platelets from dog blood
T1 sequence (A0A8I3NSH0 1-343): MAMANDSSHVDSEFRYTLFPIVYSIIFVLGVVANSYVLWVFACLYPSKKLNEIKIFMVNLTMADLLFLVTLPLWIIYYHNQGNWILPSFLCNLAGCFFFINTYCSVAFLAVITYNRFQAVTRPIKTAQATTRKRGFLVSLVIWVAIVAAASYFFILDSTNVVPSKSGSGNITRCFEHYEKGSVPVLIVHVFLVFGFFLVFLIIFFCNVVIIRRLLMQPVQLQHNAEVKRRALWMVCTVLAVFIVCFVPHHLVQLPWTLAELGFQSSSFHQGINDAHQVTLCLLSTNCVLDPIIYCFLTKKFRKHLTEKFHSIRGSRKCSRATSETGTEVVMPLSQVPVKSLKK
Protocol: The binding assay was done in 400 μl polyethylene microcentrifuge tubes (Beckman) containing 50 μl of an oil mixture of 2 parts Siliconol AR200 (Serva): 1 part Silicone Fluid (Arthur H. Thomas). Buffer, standards, or analogs (150 μl total volume) were added to the tubes. Radiolabelled ^3 H-PAF (50 μl) was then added to the tubes. The reaction was started by the addition of 50 μl of dog platelets (2×10^7 platelets). The tubes were capped, inverted several times to mix, and incubated for 10 minutes at room temperature. The platelets were separated from the incubation mixture by centrifuging 1 minute in a Beckman Microfuge B centrifuge. The tip of the microfuge tube was cut off, and the platelets were washed out of the tip with 200 μl of 50% methanol (Burdick and Jackson). Aquasol (NEN, 10 ml) was added and the radioactivity in the samples was determined using an LS 8100 Beckman liquid scintillation counter linked to a Techtran tape recorder. Data was processed through an in-house computer system. Alternatively, radioactivity was determined using a Searle Mark III liquid scintillation counter linked to a Iso-Data microprocessor.
(b) Preparation of Platelets
Blood was collected from anesthesized or unanesthesized dogs into 50 ml plastic centrifuge tubes containing 3.8% sodium citrate as the anticoagulant (1 volume of citrate/9 volumes of blood). The red cells were removed by centrifugation for 15 minutes at 600 rpm (100-125 g) at room temperature. An aliquot of the supernatant platelet rich plasma (PRP) was saved for cell counting and the remainder was acidified to PH 6.5 with 0.15M citric acid. The platelet pellet was obtained after a 10 minute centrifugation at 2000 rpm (1000 g) at room temperature. Washed platelets were prepared by resuspending the platelet pellet once with PBS containing 1 mM EDTA, centrifuging as noted, and then resuspending the platelets in 0.1% BSA-PBS. An aliquot of the washed platelets was counted. Platelets used for binding assays were diluted to 2×10^7 platelets/assay tube (4×10^8 platelets/ml). Platelet counting was done using a Royco Cell-Crit 921.

[2] = tested on: PAF-Induced Bronchoconstriction; assay: PAF Induced Bronchoconstriction Assay; format: in vivo, guinea pig; conditions: for inhibition in vivo at 50 mg/kg: Cavia porcellus, po, 2-hour pretreatment, read-out: Percent Inhib. of PAF-Induced Bronchoconstriction, 50 mg/Kg p.o.; for inhibition in vivo at 50 mg/kg / Percent Inhib. of PAF-Induced Bronchoconstriction, 50 mg/Kg p.o. (8 hr): 50 mg/Kg p.o.; for Percent Inhib. of PAF-Induced Bronchoconstriction, mg/Kg i.v.: i.v. (dose not given), 1 minute pretreatment, PAF 1.0 μg/kg i.v.
Protocol: PAF Induced Bronchoconstriction Assay
Male animals (Hartlet Strain 400-500 g) were anesthetized with urethane (2 g/kg. i.p.). Each animals' trachea was cannulated and the guinea pigs were repirated using a Harvard small animal rodent respirator (3.0 cc stroke volume, 40 breaths per min.). Tracheal pressure was recorded from a cannula inserted in the trachea and connected to a Statham Pressure Transducer.
The jugular vein was cannulated for administering compounds. Spontaneous breathing was arrested with succinylcholine (1.2 mg/kg. i.v.) administered 2 minutes prior to intravenous injection of platelet activating factor (PAF).
For, the intravenous testing, the guinea pig is given a 5-minute pretreatment with propranolol at a dose of 0.1 mg/kg intravenously. The test compound is administered with a 1 minute pretreatment prior to intravenous challenge with PAF. The animal is than challenged with a 1.0 μg/kg intravenous dose of PAF and the change is tracheal pressure is measured.
For the oral testing, the procedure includes a 2-hour pretreatment period with the test compound administered through an oral gavage tube. Propranolol or succinylcholine and PAF are administered intravenously, and the change in tracheal pressure measured.
The change is tracheal pressure is determined by subtracting the steady state baseline achieved after administration of succinylcholine from the peak bronchoconstriction seen after challenge with PAF. The mean is calculated for each test compound and compared to the mean of the control animals to give the percent inhibition of bronchoconstriction. The standard error is calcuated as the standard error of the mean.

[3] = dog platelets, 3H-PAF, 10 minutes at room temperature, read-out: Inhib of PAF Binding IC50

IC50 [1, 3] [nM]	Compound	inhibition in vivo at 50 mg/kg [2] [%]	Percent Inhib. of PAF-Induced Bronchoconstriction, mg/Kg i.v. [2] [%]	other results
50	COc1ccc(C(=C/C=C/C(=O)N[C@H](C)CCCc2cccnc2)c2ccc(OC)c(OC)c2)cc1OC [[R-(E)]-5,5-bis(3,4-dimethoxyphenyl)-N-[1-methyl-4-(3-pyridinyl)butyl]-2,4-pentadienamide]	66 ± 19	99 ± 1	–
900	CCc1ccc(CCCC(C)NC(=O)/C=C/C=C(c2ccc(OC)cc2)c2ccc(OC)cc2)cn1 (racemic) [[R,S-(E)]-5,5-bis-(4-methoxyphenyl)-N-[1-methyl-4-(6-ethyl-3-pyridinyl)butyl]-2,4-pentadienamide]	–	–	–
400	O=C(/C=C\C=C(c1ccccc1)c1ccccc1)NCCCCc1cccnc1 [(Z)-5,5-diphenyl-N-[4-(3-pyridinyl)butyl]-2,4-pentadienamide]	–	–	–
20	COc1cccc(C(=C/C=C/C(=O)NC(C)CCCc2cccnc2)c2cccc(OC)c2)c1 (racemic) [[R.S-(E)]-5,5-bis(3-methoxyphenyl)-N-[1-methyl-4-(3-pyridinyl)butyl]-2,4-pentadienamide]	–	–	–
300	COc1ccc(C(=C/C=C/C(=O)NCCCOc2cccnc2)c2ccc(OC)cc2)cc1 [(E)-5,5-bis(4-methoxyphenyl)-N-[3-[(3-pyridinyl)oxy]propyl]-2,4-pentadienamide]	–	–	–
> 1000	COc1ccc(C(=C/C=C/C(=O)NCCCCc2cncc3ccccc23)c2ccc(OC)cc2)cc1 [(E)-N-[4-(4-isoquinolinyl)butyl]-5,5-bis(4-methoxyphenyl)-2,4-pentadienamide]	–	–	–
700	COc1ccc(C(=C/C=C/C(=O)NC(C)CCCc2ccc(C)nc2)c2ccc(OC)cc2)cc1 (racemic) [[R,S-(E)]-5,5-bis(4-methoxyphenyl)-N-[1-methyl-4-(6-methyl-3-pyridinyl)butyl]-2,4-pentadienamide]	–	–	–
450	COc1cccc(C(=C/C=C/C(=O)NCCCCCCc2cccnc2)c2cccc(OC)c2)c1 [(E)-5,5-bis(3-Methoxyphenyl)-N-[6-(3-pyridinyl)hexyl]-2,4-pentadienamide]	–	–	–
100	CC(CCCc1cccnc1)NC(=O)/C=C/C=C(c1ccccc1)c1ccccc1 (racemic) [[R,S-(E)]-5,5-Diphenyl-N-[1-methyl-4-(3-pyridinyl)butyl]-2,4-pentadienamide]	–	–	–
600	COc1ccc(C(=C/C=C/C(=O)Nc2cccc3cnccc23)c2ccc(OC)cc2)cc1 [(E)-N-(5-isoquinolinyl)-5,5-bis(4-methoxyphenyl)-2,4-pentadienamide]	–	–	–
> 1000	COc1ccc(C(=C/C=C/C(=O)NCCCc2cccc3ccncc23)c2ccc(OC)cc2)cc1 [(E)-N-[3-(8-isoquinolinyl)propyl]-5,5-bis(4-methoxyphenyl)-2,4-pentadienamide]	–	–	–

The next lines start with the compound.

Compound	IC50 [1, 3] [nM]	inhibition in vivo at 50 mg/kg [2] [%]	Percent Inhib. of PAF-Induced Bronchoconstriction, mg/Kg i.v. [2] [%]	other results
COc1cccc(C(=C/C=C/C(=O)NC(C)(C)CCCc2cccnc2)c2cccc(OC)c2)c1 [(E)-5,5-bis(3-Methoxyphenyl)-N-[1,1-dimethyl-4-(3-pyridinyl)butyl]-2,4-pentadienamide]	–	22 ± 10	–	–
COc1ccc(/C(=C\C=C\C(=O)N[C@H](C)CCCc2cccnc2)c2ccccc2)cc1 [[R-(2E,4Z)]-5-(4-methoxyphenyl)-N-[1-methyl-4-(3-pyridinyl)butyl]-5-phenyl-2,4-pentadienamide]	–	0	74 ± 11	–
CCCCCC(=C/C=C/C(=O)N[C@H](C)CCCc1cccnc1)CCCCC [[R-(E)]-N-[1-methyl-4-(3-pyridinyl)butyl]-5-pentyl-2,4-decadienamide]	100	4 ± 4	78 ± 7	–
O=C(/C=C/C=C(c1cccc([N+](=O)[O-])c1)c1cccc([N+](=O)[O-])c1)NCCCCc1cccnc1 [(E)-5,5-bis(3-nitrophenyl)-N-[4-(3-pyridinyl)butyl)-2,4-pentadienamide]	–	–	18 ± 2	IC50 [1]: 115 nM
COc1ccc(/C(=C\C=C\C(=O)N[C@H](C)CCCc2cccnc2)C2CCCCC2)cc1 [[R-(2E,4Z)]-5-cyclohexyl-5-(4-methoxyphenyl)-N-[1-methyl-4-(3-pyridinyl)butyl]-2,4-pentadienamide]	–	–	18 ± 12	–
COc1ccc(C(=C/C=C/C(=O)NC(C)(C)CCCc2cccnc2)c2ccc(OC)cc2)cc1 [(E)-5,5-bis(4-Methoxyphenyl)-N-1,1-dimethyl-4-(3-pyridinyl)butyl]-2,4-pentadienamide]	–	54 ± 9	–	–
CCCCC/C(=C/C=C/C(=O)N[C@H](C)CCCc1cccnc1)c1ccc(OC)cc1 [[R-(2E,4Z)]-5-(4-methoxyphenyl)-N-[1-methyl-4-(3-pyridinyl)butyl]-2,4-decadienamide]	–	–	57 ± 12	–
CC(C)(CCCc1cccnc1)NC(=O)/C=C/C=C(c1ccc(F)cc1)c1ccc(F)cc1 [(E)-5,5-bis(4-Fluorophenyl)-N-[1,1-dimethyl-4-(3-pyridinyl)butyl]-2,4-pentadienamide]	–	20 ± 14	–	–
COc1ccc(/C(=C/C=C/C(=O)N[C@H](C)CCCc2cccnc2)c2ccccc2)cc1 [[R-(E,E)]-5-(4-methoxyphenyl)-N-[1-methyl-4-(3-pyridinyl)butyl]-5-phenyl-2,4-pentadienamide]	–	95 ± 1	89 ± 4	–
C[C@@H](CCCc1cccnc1)NC(=O)/C=C/C=C(c1ccc(F)cc1)c1ccc(F)cc1 [[S-(E)]-5,5-bis(4-fluorophenyl)-N-[1-methyl-4-(3-pyridinyl)butyl]-2,4-pentadienamide]	–	44 ± 10	–	–
C/C(=C\C=C(c1ccccc1)c1ccccc1)C(=O)NCCCCc1cccnc1 [(E)-5,5-Diphenyl-2-methyl-N-[4-(3-pyridinyl)butyl]-2,4-pentadienamide]	100	–	–	–
CC(C)(CCCc1cccnc1)NC(=O)/C=C/C=C(c1cccc(F)c1)c1cccc(F)c1 [(E)-5,5-bis(3-Fluorophenyl)-N-[1,1-dimethyl-4-(3-pyridinyl)butyl]-2,4-pentadienamide]	–	11 ± 10	–	–
Cc1ccc(C(=C/C=C/C(=O)NCCCCc2cccnc2)c2ccc(C)cc2)cc1 [(E)-5,5-bis(4-methylphenyl)-N-[4-(3-pyridinyl)butyl]-2,4-pentadienamide]	–	67 ± 15	95 ± 1	Percent Inhib. of PAF-Induced Bronchoconstriction, 50 mg/Kg p.o. (8 hr) [2]: 11 ± 6%
COc1ccc(C(=C/C=C/C(=O)NC(CCCc2cccnc2)C(C)C)c2ccc(OC)cc2)cc1 (racemic) [[R,S-(E)]-5,5-bis(4-methoxyphenyl)-N-[1-(1-methylethyl)-4-(3-pyridinyl)butyl]-2,4-pentadienamide]	–	57 ± 19	87 ± 7	–
CCCCC/C(=C\C=C\C(=O)N[C@H](C)CCCc1cccnc1)c1ccc(OC)cc1 [[R-(E,E)]5-(4-methoxyphenyl)-N-[1-methyl-4-(3-pyridinyl)butyl]-2,4-decadienamide]	–	100 ± 0.5	99 ± 1	Percent Inhib. of PAF-Induced Bronchoconstriction, 50 mg/Kg p.o. (8 hr) [2]: 71 ± 14%

— patent publication US4788206A, “Pentadieneamides” (Hoffmann-La Roche Inc., priority 1987, dated 1988)
